# From PMC9412374, “Design, Synthesis, and Development of pyrazolo[1,5-a]pyrimidine Derivatives as a Novel Series of Selective PI3Kδ Inhibitors: Part I—Indole Derivatives” (Pharmaceuticals, 2022)
# Like-named read-outs stand apart in the source and are kept apart here.
# Tests used:
# PI3Kα = biological target: T1, PI3Kα (Homo sapiens, UniProt P42336); test: In vitro kinase inhibition assay for PI3K (ADP-Glo), PI3Kα; assay type: biochemical; conditions: for IC50: IC50 PI3K α, recombinant kinase, ADP-Glo, mean of two independent experiments; for Fold Selectivity α/δ: ratio of IC50 PI3Kα to IC50 PI3Kδ
# T1 construct: purchased Carna Biosciences
# Protocol: (§1) Tested compounds were dissolved in 100% DMSO, and obtained solutions were serially diluted in 1× reaction buffer. The recombinant kinase solution was diluted in a reaction mixture comprising 5× reaction buffer, respective compound solution (1 mM sodium diacetate 4,5-bisphosphate phosphatidylinositol (PIP2) solution in 40 mM Tris buffer), and water. In a 96-wells plate, 5 μL of compound solutions and 15 μL of the kinase solution in the reaction mixture were added per well. To initiate the interaction of chemical compounds to be tested with the enzyme, the plate was incubated for 10 min at a suitable temperature in a plate thermostat with orbital shaking at 600 rpm. Negative control wells contained all the above reagents except tested compound and kinase, and positive control wells contained all the above reagents except tested compounds. The enzymatic reaction was initiated by adding 5 μL of 150 μM ATP solution. Subsequently, the plate was incubated for 1 h at 25 or 30 °C (depending on the PI3K isoform tested) in a plate thermostat with orbital shaking of the plate contents at 600 rpm. The reaction conditions are combined in the table below (Table 6).
# (§2) Detection of ADP formed in the enzymatic reaction was then performed using ADP-Glo Kinase Assay™ (Promega, Madison, WI, USA). To the wells of a 96-well plate, 25 μL of ADP-Glo Reagent™ was added, and the plate was incubated for 40 min at 25 °C in a plate thermostat with orbital shaking at 600 rpm. Then 50 μL of Kinase Detection Reagent were added to each well, and the plate was incubated for 40 min at 25 °C in a plate thermostat with orbital shaking at 600 rpm. Once the incubation was complete, the luminescence intensity was measured using a Victor Light luminometer (Perkin Elmer, Inc., Waltham, MA, USA). IC50 values were determined based on luminescence intensity measured in wells containing tested compounds at different concentrations in relation to control wells. These values were calculated with Graph Pad 5.03 software by fitting the curve using non-linear regression. Each compound was tested at least in quadruplicates (4 wells) on two 96-well plates utilizing at least 4 wells for each control. Averaged results of inhibition activity respective to specific isoforms of PI3K kinases for tested compounds are presented as IC50 values in Table 1, Table 2, Table 3 and Table 4.
# PI3Kδ = biological target: T2, PI3Kδ (Homo sapiens, UniProt O00329); test: In vitro kinase inhibition assay for PI3K (ADP-Glo), PI3Kδ; assay type: biochemical; conditions: recombinant kinase, mean of two independent experiments
# T2 construct: purchased Merck Millipore
# Protocol: as §1, with “The enzymatic reaction was initiated by adding 5 μL of 150 μM ATP solution.” left out
# as §2, with “These values were calculated with Graph Pad 5.03 software by fitting the curve using non-linear regression.” left out, “control.” for “control. Averaged results of inhibition activity respective to specific isoforms of PI3K kinases for tested compounds are presented as IC50 values in Table 1, Table 2, Table 3 and Table 4.”
# PI3Kγ = biological target: T3, PI3Kγ (Homo sapiens, UniProt P48736); test: In vitro kinase inhibition assay for PI3K (ADP-Glo), PI3Kγ; assay type: biochemical; conditions: for Fold Selectivity γ/δ: ratio of IC50 PI3Kγ to IC50 PI3Kδ
# T3 construct: purchased Merck Millipore
# Protocol: as §1, with “The enzymatic reaction was initiated by adding 5 μL of 150 μM ATP solution.” left out
# as §2, with “These values were calculated with Graph Pad 5.03 software by fitting the curve using non-linear regression.” left out, “control.” for “control. Averaged results of inhibition activity respective to specific isoforms of PI3K kinases for tested compounds are presented as IC50 values in Table 1, Table 2, Table 3 and Table 4.”
# [1] = Kinetic solubility, shake-flask protocol; assay type: physicochemical; conditions: aqueous buffer, kinetic from dmso stock, pH 7.4 phosphate-buffered saline, 25 °C, 500 µM compound
# Protocol: Kinetic solubility was determined by the shake-flask protocol. Appropriate compounds (500 µM) were incubated in an aqueous buffer (0.1 M phosphate-buffered saline pH 7.4) at 25 °C with stirring at 500 rpm. The samples were taken at the start time and after 24 h of incubation, filtered through 0.22 µm filters, and diluted with two volumes of acetonitrile. UHPLC-UV/Vis determined sample concentrations. A calibration curve was prepared to quality the compound’s contents in the test solution.
# PI3Kβ = biological target: T4, PI3Kβ (Homo sapiens, UniProt P42338); test: In vitro kinase inhibition assay for PI3K (ADP-Glo), PI3Kβ; assay type: biochemical; conditions: for Fold Selectivity β/δ: ratio of IC50 PI3Kβ to IC50 PI3Kδ
# T4 construct: purchased Merck Millipore
# Protocol: as §1, with “The enzymatic reaction was initiated by adding 5 μL of 150 μM ATP solution.” left out
# as §2, with “These values were calculated with Graph Pad 5.03 software by fitting the curve using non-linear regression.” left out, “control.” for “control. Averaged results of inhibition activity respective to specific isoforms of PI3K kinases for tested compounds are presented as IC50 values in Table 1, Table 2, Table 3 and Table 4.”
# [2] = Metabolic phase I stability in mouse microsomes; assay type: in vitro ADME; conditions: NADPH, 37 °C; for microsomal CLint at 1 μM: heading: MLM Cl; for half-life at 1 μM: read-out: MLM t1/2
# Protocol: (§3) Assessment of metabolic phase I stability in mouse (CD-1™) and human microsomes (Thermo-Fisher Scientific, Waltham, MA, USA) was performed on 96-well non-binding plates (Greiner, Frickenhausen, Germany) at 1 μM concentration for verapamil (positive control) and donepezil (negative control) and tested compounds. Unless otherwise stated, all chemicals and materials were ordered from Merck Life Science (Palo Alto, CA, USA). Each biological replicate was prepared in triplicates. Briefly, mixtures were incubated in 100 mM potassium phosphate buffer with microsomes (0.5 mg/mL) and NADPH (1–1.2 mM) on a plate shaker (500 rpm) in the dark at 37 °C. A 4× solution of NADPH, a cofactor for metabolic enzymes, was prepared directly prior to the experiment by reducing NADP with G6P dehydrogenase (13.2 mM MgCl2, 13.2 mM G6P, 5.2 mM NADP, 3.2 U/mL G6P dehydrogenase, 20 min at 30 °C, 500 rpm). The negative control contained buffer instead of NADPH solution. Samples were collected at 0, 10, 20, and 40 min or 0 and 40 min for the negative and double negative controls. The reaction was stopped by protein precipitation in 2 volumes of ice-cold MeOH with 200 nM imipramine (an internal standard for LC-MS analysis). Then, the extract was mixed (1 min, 1000 rpm), filtered through a 0.22 μm filter on a 96-well plate vacuum manifold, and subjected to LC-MS analysis.
# [3] = Metabolic phase I stability in human microsomes; assay type: in vitro ADME; conditions: human microsomes 0.5 mg/mL, NADPH, 37 °C; for half-life at 1 μM: read-out: HLM t1/2
# Protocol: as §3
# CD19 cells = test: B cells proliferation by flow cytometry (CFSE); assay type: cell-based; conditions: B-cell, 96 h, CD19 cells from PBMC, activated by αIgM and ODN2006, four days
# Protocol: CD19 cells were isolated from PBMC using magnetic beads (Stem Cell, Cambridge, MA, USA) and then labeled with 2 µM CFSE (Invitrogen, Waltham, MA, USA).
# After four days, cells were stained with LIVE/DEAD™ kit (Invitrogen, Waltham, MA, USA). Samples were acquired using Attune NxT Flow Cytometer (Invitrogen, Waltham, MA, USA) and analyzed using FlowJo software. Each biological assay was performed with cells isolated from a different donor. The presented results constitute the average value of the percentage of proliferating cells from 3 independent experiments.
# [4] = CD-1, liver microsomes, mouse microsomes 0.5 mg/mL
# T4 sequence (P42338 whole entry): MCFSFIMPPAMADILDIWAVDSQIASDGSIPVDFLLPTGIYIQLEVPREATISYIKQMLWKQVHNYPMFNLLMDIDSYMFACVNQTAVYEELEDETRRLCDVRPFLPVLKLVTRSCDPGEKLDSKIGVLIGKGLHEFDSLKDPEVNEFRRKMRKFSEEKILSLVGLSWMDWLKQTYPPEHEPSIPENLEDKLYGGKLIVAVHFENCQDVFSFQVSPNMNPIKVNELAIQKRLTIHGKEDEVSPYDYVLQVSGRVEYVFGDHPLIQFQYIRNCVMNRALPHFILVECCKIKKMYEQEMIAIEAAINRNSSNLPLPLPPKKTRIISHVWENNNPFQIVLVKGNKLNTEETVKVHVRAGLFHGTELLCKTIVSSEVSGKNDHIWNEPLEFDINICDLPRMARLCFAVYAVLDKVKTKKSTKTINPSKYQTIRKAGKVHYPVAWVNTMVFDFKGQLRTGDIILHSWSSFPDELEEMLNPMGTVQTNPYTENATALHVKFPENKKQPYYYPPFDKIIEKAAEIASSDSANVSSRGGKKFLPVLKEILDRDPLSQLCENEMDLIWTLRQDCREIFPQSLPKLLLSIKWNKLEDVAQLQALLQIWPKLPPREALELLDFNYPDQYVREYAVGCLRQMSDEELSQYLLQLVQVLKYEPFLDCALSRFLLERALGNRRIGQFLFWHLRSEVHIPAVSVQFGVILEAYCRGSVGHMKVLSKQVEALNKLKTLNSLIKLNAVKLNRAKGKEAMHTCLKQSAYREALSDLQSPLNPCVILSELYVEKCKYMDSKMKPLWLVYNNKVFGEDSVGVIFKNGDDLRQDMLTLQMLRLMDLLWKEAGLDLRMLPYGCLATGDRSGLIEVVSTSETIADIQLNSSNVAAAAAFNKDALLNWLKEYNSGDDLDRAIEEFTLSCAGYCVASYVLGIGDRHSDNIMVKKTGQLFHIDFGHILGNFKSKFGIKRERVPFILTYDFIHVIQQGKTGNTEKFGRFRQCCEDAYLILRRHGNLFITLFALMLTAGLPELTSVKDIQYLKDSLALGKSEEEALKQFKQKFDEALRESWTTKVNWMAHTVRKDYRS
# T4 sequence (P27986 whole entry, further chain): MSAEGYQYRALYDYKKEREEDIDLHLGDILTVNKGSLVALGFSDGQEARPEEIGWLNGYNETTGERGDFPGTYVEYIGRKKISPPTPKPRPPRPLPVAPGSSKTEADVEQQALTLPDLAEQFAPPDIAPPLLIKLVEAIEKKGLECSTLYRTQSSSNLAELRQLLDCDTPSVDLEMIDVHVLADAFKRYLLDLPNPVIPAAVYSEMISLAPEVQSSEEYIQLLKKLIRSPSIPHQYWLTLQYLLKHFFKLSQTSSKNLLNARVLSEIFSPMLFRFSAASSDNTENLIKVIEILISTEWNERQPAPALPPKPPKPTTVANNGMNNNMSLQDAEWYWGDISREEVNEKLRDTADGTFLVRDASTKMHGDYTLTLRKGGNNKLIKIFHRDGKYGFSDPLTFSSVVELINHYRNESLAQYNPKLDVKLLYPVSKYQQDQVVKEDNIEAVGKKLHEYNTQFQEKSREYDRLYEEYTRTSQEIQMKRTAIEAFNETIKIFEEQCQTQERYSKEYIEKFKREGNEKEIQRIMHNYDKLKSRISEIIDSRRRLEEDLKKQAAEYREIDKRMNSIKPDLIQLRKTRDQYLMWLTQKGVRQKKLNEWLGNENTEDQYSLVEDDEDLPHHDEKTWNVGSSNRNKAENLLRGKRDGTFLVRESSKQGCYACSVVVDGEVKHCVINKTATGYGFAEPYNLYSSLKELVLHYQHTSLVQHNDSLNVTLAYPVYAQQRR
# T1 sequence (P42336 whole entry): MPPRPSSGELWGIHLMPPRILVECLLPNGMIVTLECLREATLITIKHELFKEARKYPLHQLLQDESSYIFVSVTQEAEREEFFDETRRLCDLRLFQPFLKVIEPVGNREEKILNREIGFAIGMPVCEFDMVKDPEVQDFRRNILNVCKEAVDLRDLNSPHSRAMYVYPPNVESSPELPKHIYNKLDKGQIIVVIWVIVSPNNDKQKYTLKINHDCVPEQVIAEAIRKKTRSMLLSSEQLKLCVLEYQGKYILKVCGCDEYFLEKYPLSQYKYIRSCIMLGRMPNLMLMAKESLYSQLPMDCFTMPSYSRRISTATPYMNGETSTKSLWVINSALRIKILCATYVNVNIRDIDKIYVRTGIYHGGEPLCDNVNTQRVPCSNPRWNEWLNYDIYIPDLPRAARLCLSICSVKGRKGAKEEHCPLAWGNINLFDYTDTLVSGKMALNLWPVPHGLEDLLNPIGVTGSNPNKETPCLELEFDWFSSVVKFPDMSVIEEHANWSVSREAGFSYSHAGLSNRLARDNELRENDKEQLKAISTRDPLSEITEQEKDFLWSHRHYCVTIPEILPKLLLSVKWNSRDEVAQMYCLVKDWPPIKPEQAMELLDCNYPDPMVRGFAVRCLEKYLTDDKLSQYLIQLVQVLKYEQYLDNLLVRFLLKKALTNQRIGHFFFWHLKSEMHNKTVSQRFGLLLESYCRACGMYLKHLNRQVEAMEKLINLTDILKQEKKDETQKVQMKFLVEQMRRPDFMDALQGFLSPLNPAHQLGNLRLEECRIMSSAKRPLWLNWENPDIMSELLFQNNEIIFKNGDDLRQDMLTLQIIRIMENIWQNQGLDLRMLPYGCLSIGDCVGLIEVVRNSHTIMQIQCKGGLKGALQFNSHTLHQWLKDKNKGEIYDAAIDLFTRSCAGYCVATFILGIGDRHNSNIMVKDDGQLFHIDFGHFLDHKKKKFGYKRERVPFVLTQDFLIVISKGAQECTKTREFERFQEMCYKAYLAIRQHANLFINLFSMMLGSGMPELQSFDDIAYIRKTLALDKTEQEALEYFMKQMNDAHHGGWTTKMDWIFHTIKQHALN
# T1 sequence (P27986 whole entry partner): as the sequence (P27986 whole entry, further chain) above
# T3 sequence (P48736 whole entry): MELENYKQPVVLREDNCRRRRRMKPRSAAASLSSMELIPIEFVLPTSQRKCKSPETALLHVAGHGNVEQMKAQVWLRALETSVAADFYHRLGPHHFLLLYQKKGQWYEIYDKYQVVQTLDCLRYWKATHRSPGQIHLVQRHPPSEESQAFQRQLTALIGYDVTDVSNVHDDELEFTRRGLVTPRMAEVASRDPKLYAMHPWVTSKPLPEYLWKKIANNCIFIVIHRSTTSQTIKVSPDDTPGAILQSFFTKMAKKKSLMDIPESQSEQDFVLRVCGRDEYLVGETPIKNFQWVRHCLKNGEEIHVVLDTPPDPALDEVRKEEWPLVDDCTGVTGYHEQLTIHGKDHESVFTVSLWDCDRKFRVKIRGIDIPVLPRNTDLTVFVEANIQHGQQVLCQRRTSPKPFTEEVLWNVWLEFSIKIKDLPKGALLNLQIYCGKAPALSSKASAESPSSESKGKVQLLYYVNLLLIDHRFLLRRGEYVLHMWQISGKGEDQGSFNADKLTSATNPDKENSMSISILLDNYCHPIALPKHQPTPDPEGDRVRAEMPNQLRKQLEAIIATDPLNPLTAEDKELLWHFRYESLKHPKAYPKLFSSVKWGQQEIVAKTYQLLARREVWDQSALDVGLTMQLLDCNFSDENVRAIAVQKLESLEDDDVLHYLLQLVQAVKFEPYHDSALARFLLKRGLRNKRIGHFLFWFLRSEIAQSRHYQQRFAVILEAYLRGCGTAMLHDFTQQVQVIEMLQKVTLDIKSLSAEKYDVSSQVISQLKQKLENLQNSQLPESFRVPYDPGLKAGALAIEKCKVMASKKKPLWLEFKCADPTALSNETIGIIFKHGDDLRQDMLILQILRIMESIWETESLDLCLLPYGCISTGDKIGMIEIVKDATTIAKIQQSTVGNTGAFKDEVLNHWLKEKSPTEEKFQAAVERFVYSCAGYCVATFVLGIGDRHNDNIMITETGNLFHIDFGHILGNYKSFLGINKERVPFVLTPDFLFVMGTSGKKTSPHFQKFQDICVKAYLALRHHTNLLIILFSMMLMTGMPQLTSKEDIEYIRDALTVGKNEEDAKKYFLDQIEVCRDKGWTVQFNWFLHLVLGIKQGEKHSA
# T2 sequence (P27986 whole entry): as the sequence (P27986 whole entry, further chain) above
# T2 sequence (O00329 whole entry): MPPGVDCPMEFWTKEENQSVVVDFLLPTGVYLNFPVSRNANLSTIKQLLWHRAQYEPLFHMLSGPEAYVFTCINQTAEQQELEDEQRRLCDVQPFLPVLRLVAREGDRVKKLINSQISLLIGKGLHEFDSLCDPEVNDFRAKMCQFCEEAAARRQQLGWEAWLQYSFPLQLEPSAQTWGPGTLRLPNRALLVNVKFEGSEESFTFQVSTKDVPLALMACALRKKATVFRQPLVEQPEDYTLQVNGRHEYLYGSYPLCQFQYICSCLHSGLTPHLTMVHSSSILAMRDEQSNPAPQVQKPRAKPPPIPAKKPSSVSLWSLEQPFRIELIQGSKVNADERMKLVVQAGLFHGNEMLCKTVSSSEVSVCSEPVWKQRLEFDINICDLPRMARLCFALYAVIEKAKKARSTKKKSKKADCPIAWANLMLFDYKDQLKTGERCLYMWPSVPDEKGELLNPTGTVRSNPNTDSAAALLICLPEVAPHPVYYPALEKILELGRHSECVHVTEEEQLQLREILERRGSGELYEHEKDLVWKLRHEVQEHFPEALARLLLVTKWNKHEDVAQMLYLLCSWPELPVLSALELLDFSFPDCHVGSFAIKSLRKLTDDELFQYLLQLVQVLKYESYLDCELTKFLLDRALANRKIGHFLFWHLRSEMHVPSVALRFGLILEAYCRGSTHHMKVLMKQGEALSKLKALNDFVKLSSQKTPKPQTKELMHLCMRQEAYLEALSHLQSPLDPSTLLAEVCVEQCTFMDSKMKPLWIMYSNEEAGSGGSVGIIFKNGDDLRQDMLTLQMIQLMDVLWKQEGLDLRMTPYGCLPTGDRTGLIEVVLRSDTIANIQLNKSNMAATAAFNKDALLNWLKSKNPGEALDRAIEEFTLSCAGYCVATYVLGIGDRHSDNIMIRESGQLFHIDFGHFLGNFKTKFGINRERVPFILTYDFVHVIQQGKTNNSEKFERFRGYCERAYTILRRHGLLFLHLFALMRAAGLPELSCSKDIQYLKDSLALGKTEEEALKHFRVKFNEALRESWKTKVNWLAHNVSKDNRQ
Compound,IC50 (PI3Kα),Fold Selectivity α/δ (PI3Kα),IC50 (PI3Kδ; read-out: IC50 PI3K δ),Fold Selectivity γ/δ (PI3Kγ),"IC50 (PI3Kγ; recombinant kinase, ADP-Glo, mean of two independent experiments, read-out: IC50 PI3K γ)",solubility kinetic at 24 h [1],Fold Selectivity β/δ (PI3Kβ),"IC50 (PI3Kβ; recombinant kinase, ADP-Glo, mean of two independent experiments, read-out: IC50 PI3K β)","microsomal CLint at 1 μM [2, 4]","half-life at 1 μM [2, 4]","microsomal CLint at 1 μM ([3]; liver microsomes, heading: HLM Cl)",half-life at 1 μM ([3]; liver microsomes),IC50 (CD19 cells),IC50 (PI3Kδ; IC50 PI3K δ),IC50 (PI3Kγ),IC50 (PI3Kβ),"microsomal CLint at 1 μM ([2]; CD-1, microsomes, mouse microsomes 0.5 mg/mL)","half-life at 1 μM ([2]; CD-1, mouse microsomes 0.5 mg/mL)",half-life at 1 μM [3]
"CC(C)(C)N1CCN(Cc2cc3nc(-c4cccc5[nH]ccc45)cc(N4CCOCC4)n3n2)CC1 [Compound 37, 2-((4-tert-butylpiperazin-1-yl)methyl)-5-(1H-indol-4-yl)-7-(morpholin-4-yl)pyrazolo[1,5-a]pyrimidine]",12500 nM,1889,6.6 nM,>9091,> 60000 nM,444 µM,829,5470 nM,13.7 µL/min/mg,2.1 h,22.8 µL/min/mg,1.27 h,20 nM,–,–,–,–,–,–
"CC(C)(C)N1CCN(Cc2cc3nc(-c4cncc5[nH]ccc45)cc(N4CCOCC4)n3n2)CC1 [Compound 54, 2-((4-tert-butylpiperazin-1-yl)methyl)-5-(1H-pyrrolo [2,3-c]pyridin-4-yl)-7-(morpholin-4-yl)pyrazolo[1,5-a]pyrimidine]",2670 nM,954,–,"12,286",–,> 500 µM,7714,–,–,–,–,–,19 nM,2.8 nM,34400 nM,21600 nM,7 µL/min/mg,3.3 h,6.17 h
